How the values were obtained:
human CB1 receptor = human CB1 receptor (Homo sapiens, UniProt P21554); test: CB1 (h) receptor ligand binding (competition)
From the text: (§1) The specific ligand binding to the receptors is defined as the difference between complete binding and non-specific binding determined in the presence of an excess of unlabelled ligand (see, for example, MUNRO, S., THOMAS, K. L. and ABU-SHAAR, M. (1993), Molecular characterisation of a peripheral receptor for cannabinoids.
(§2) The IC50 values (concentration necessary for half-maximum inhibition of the specific control binding) and Hill coefficients (nH) are obtained by non-linear regression analyses of the competition curves, with the curve matching being carried out in accordance with the Hill equation.
(§3) The inhibition constants (Ki) are calculated in accordance with the Cheng Prusoff equation (Ki=IC50/1+(L/KD)).

human CB2 receptor = human CB2 receptor (Homo sapiens, UniProt P34972); test: CB2 (h) receptor ligand binding (competition)
From the text: as §1, §2, §3

[1] = calculated by Cheng Prusoff equation
[2] = half-maximum inhibition of specific control binding
[3] = non-linear regression of competition curve

human CB2 receptor, sequence (P34972 whole entry): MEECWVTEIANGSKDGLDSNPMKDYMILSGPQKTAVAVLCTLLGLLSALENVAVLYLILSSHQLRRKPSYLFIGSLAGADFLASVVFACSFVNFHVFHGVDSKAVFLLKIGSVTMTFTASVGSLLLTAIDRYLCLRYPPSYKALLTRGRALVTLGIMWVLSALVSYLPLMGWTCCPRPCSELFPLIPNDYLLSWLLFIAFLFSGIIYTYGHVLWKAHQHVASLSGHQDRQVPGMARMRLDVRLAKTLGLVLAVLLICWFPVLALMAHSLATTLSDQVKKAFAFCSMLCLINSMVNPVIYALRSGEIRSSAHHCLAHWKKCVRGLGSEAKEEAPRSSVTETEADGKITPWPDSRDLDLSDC
human CB1 receptor, sequence (P21554 whole entry): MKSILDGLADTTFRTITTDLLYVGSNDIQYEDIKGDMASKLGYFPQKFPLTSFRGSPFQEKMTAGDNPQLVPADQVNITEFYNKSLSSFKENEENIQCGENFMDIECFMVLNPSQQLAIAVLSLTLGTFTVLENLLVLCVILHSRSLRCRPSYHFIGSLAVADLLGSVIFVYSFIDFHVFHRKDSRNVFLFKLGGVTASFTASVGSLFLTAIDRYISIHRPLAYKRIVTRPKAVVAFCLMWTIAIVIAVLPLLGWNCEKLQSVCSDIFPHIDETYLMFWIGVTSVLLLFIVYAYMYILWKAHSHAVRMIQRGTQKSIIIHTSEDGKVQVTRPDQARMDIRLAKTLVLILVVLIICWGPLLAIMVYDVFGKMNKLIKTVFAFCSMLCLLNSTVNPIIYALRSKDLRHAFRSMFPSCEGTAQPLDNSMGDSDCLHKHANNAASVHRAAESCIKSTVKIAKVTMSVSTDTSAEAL

In the case of `CCCCCc1cc(O)c2c(c1)OC(F)(F)C1CCCCC21` (stereo not drawn) [Compound Ia], the Ki (human CB1 receptor; [1]) is reported as 1.9 µM, the IC50 (human CB1 receptor; [2]) is reported as 2.2 µM and the “nH (Hill coefficient)” value (human CB1 receptor; [3]) is reported as 1.5. The Ki (human CB2 receptor; [1]) was 0.92 µM, the IC50 (human CB2 receptor; [2]) was 1.4 µM and the “nH (Hill coefficient)” value (human CB2 receptor; [3]) was 0.9.
